What is called IC50 is the point on the concentration scale where inhibition reaches its midpoint.

26 compounds from ChEMBL document CHEMBL3286297, “Design, synthesis and antiproliferative activity of a novel class of indole-2-carboxylate derivatives” (Eur J Med Chem, 2014) can be followed below.

Molecules are shown by their SMILES. Activity calls are given as the source filed them. The calls are words filed in the database; no cut-off is given here.

Common to all, as to assay type: functional, cell-based
The test system of test [1] is HepG2. Kind of test: Antiproliferative against human HepG2 cells after 48 hrs by MTT assay. Particulars: HepG2, 48 h.
Test [2] relates to A549. Kind of test: Antiproliferative against human A549 cells after 48 hrs by MTT assay. Particulars: A549, 48 h.
The test system of test [3] is MCF7. Kind of test: Antiproliferative against human MCF7 cells after 48 hrs by MTT assay. Particulars: MCF7, 48 h. Background: Formazan colour is commonly taken as a measure of viable cells.
The subject of test [4] is A549. Kind of test: Cell cycle arrest in human A549 cells assessed as accumulation at G2/M phase after 48 hrs by flow cytometric analysis. (Flow cytometry measures light scatter and fluorescence of single cells or particles in a stream.)
The test system of test [5] is A549. In words: Cell cycle arrest in human A549 cells assessed as accumulation at G1 phase after 48 hrs by flow cytometric analysis.
The subject of test [6] is A549. In words: Induction of reactive oxygen species generation in human A549 cells after 48 hrs by […].
The test system of test [7] is A549. In words: Induction of apoptosis in human A549 cells assessed as […] cleavage after 48 hrs by Western blot analysis. In general terms: Immunoblotting shows a protein as a band on a membrane.
The test system of test [8] is A549. In words: Induction of reactive oxygen species generation in human A549 cells at 200 uM after 48 hrs by […].

Turning to `COC(=O)c1cc2c(OCC(C)C)cccc2[nH]1`, the values for the IC50 in test [1], in test [2] and in test [3] were more than 200 µM, 51.4 µM and more than 200 µM, respectively.

On to `CCCCOc1cccc2[nH]c(C(=O)OC)cc12`, for which the IC50 in test [1] was more than 200 µM; in test [2], 87.1 µM; in test [3], more than 200 µM.

Regarding `CCCCOc1cc(OC)cc2[nH]c(C(=O)OC)cc12`, the IC50 in test [1] is more than 200 µM; in test [2] it was 40.4 µM; in test [3] it was 41.8 µM.

As for `COC(=O)c1cc2c(OCc3ccc(F)cc3)cc(N)cc2[nH]1`, the IC50 in test [1], in test [2] and in test [3] was more than 200 µM each time.

Consider `COC(=O)c1cc2c(OCc3ccccc3)cc(N)cc2[nH]1`, for which the IC50 in test [1], in test [2] and in test [3] was more than 200 µM in each case.

As for `COC(=O)c1cc2c(OCC(C)C)cc(N)cc2[nH]1`, the IC50 in test [1] was 68.9 µM; in test [2], 11.4 µM; in test [3], 97.4 µM.

As to `COC(=O)c1cc2ccc(N(C)C)cc2[nH]1`, the IC50 in test [1], in test [2] and in test [3] was more than 200 µM each time.

For `COC(=O)c1cc2c(OCC3CCCCC3)cc(N)cc2[nH]1`, the Activity result in test [4], in test [5], in test [6] and in test [7] was “Dose-dependent effect” each time. Moreover, the IC50 was determined as 14.5 µM in test [1], 3.98 µM in test [2] and 3.78 µM in test [3].

Consider `CC(=O)O[C@H]1C(=O)[C@@]2(C)[C@H]([C@H](OC(=O)c3ccccc3)[C@]3(O)C[C@H](OC(=O)[C@H](O)[C@@H](NC(=O)c4ccccc4)c4ccccc4)C(C)=C1C3(C)C)[C@]1(OC(C)=O)CO[C@@H]1C[C@@H]2O` [PACLITAXEL], for which the results for the half-maximal inhibitory concentration (IC50) in test [1], in test [2] and in test [3] were 0.0673 µM, 1.53 µM and 0.0258 µM, respectively.

As to `CCOc1ccc2[nH]c(C(=O)OC)cc2c1OCC1CCCCC1`, the IC50 was more than 200 µM in test [1], 65.2 µM in test [2] and more than 200 µM in test [3].

Turning to `CCCCOc1c(OCC)ccc2[nH]c(C(=O)OC)cc12`, the IC50 was 168 µM in test [1], 102 µM in test [2] and more than 200 µM in test [3].

Consider `COC(=O)c1cc2c(OCC(C)C)cc(NC(C)=O)cc2[nH]1`, for which the IC50 in test [1], in test [2] and in test [3] was more than 200 µM throughout.

In the case of `COC(=O)c1cc2c(OCC3CCCCC3)cc(NC(C)=O)cc2[nH]1`, the IC50 in test [1], in test [2] and in test [3] was more than 200 µM in each case.

For the compound `COc1cc([C@@H]2c3cc4c(cc3[C@@H](O[C@@H]3O[C@@H]5CO[C@@H](C)O[C@H]5[C@H](O)[C@H]3O)[C@H]3COC(=O)[C@H]23)OCO4)cc(OC)c1O` [ETOPOSIDE], the IC50 in test [1] amounted to 13.7 µM; in test [2] it was 242 µM; in test [3] it was 81.1 µM.

Regarding `COC(=O)c1cc2c(OC)cccc2[nH]1`, the IC50 in test [1], in test [2] and in test [3] was more than 200 µM in each case.

Take `CCCOc1c(OCC)ccc2[nH]c(C(=O)OC)cc12`: the IC50 was 63.5 µM in test [1], more than 200 µM in test [2] and more than 200 µM in test [3].

On to `COC(=O)c1cc2c(OC(C)C)cccc2[nH]1`, for which the IC50 in test [1], in test [2] and in test [3] was more than 200 µM in each case.

For the compound `COC(=O)c1cc2c(OCC3CCCCC3)cccc2[nH]1`, the figures for the IC50 in test [1], in test [2] and in test [3] were more than 200 µM, 31.1 µM and 89.8 µM, respectively.

On to `COC(=O)c1cc2c(O)cc(N)cc2[nH]1`, for which the IC50 in test [1], in test [2] and in test [3] was more than 200 µM each time.

Consider `COC(=O)c1cc2ccc(N)cc2[nH]1`, for which the IC50 in test [1], in test [2] and in test [3] was more than 200 µM in each case.

As to `C=CCOc1cc(N)cc2[nH]c(C(=O)OC)cc12`, the IC50 in test [1], in test [2] and in test [3] was more than 200 µM in each case.

With `CCCOc1cc(OC)cc2[nH]c(C(=O)OC)cc12`, the IC50 was more than 200 µM in test [1], 25.4 µM in test [2] and 18.8 µM in test [3].

In the case of `COC(=O)c1cc2c(OC(C)C)cc(OC)cc2[nH]1`, the Activity result in test [4], in test [5], in test [6] and in test [7] was “Dose-dependent effect” in each case. The IC50 in test [1] was 3.8 µM; in test [2], 24.1 µM; in test [3], 6.38 µM.

On to `COC(=O)c1cc2c(OCC3CCCCC3)cc(OC)cc2[nH]1`, for which the results for the 50% inhibitory concentration (IC50) in test [1], in test [2] and in test [3] were more than 200 µM, 107 µM and 81.1 µM, respectively.

On to `O=C(O)c1cc(C(=O)O)c2c(n1)C(=O)C(=O)c1cc(C(=O)O)[nH]c1-2` [PYRROLOQUINOLINE QUINONE], for which the IC50 in test [1] was 45.7 µM; in test [2], 750 µM; in test [3] it was 25.5 µM. In test [8], the result was Active.

With `CCCOc1cccc2[nH]c(C(=O)OC)cc12`, the IC50 in test [1], in test [2] and in test [3] was more than 200 µM throughout.
